From patent publication US7994209B2, “3-phenoxymethylpyrrolidine compounds” (Theravance, Inc., priority 2009, dated 2011) come the findings set out here.

Structures are written as SMILES. Some results are limits rather than exact numbers.

In test [1] the target is T1, hNET (Homo sapiens, UniProt P23975). The test is described as follows: fluorescence-based norepinephrine reuptake inhibition assay (Tsuruda et al. 2010; data indicated by an asterisk). The class given is cell-based. Also on record: expressed in transfected cells; host or cells: HEK-293. The note with it: norepinephrine reuptake inhibition, fluorescence-based assay (values with asterisk); read-out: NET pIC50 (converted).
T1 sequence (P23975 whole entry): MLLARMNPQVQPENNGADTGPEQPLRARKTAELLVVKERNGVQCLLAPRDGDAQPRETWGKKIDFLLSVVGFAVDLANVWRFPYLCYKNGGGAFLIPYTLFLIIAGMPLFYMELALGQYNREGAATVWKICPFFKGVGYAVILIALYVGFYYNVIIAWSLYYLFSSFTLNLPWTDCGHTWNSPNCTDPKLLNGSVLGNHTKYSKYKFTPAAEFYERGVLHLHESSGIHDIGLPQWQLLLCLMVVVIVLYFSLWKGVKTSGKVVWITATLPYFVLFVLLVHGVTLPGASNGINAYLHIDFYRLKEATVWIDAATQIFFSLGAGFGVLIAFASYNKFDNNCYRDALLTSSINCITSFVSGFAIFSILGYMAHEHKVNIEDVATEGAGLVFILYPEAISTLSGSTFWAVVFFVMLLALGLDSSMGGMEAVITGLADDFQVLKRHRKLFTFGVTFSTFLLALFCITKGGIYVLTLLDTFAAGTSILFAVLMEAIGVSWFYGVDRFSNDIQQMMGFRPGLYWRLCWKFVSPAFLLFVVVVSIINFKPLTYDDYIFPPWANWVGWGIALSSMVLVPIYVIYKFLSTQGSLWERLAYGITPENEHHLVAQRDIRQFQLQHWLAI

Test [2] concerns the target T2, hSERT (Homo sapiens, UniProt P31645). Put plainly: fluorescence-based serotonin reuptake inhibition assay (Tsuruda et al. 2010; data indicated by an asterisk). The class given is cell-based. Further details: expressed in transfected cells; host or cells: HEK-293. The conditions noted are these: fluorescence-based assay (values with asterisk), read-out: SERT pIC50 (converted).

Test [3] deals with T1, hNET. The test is described as follows: hNET membrane radioligand binding assay (3H-nisoxetine), Assay 1.
Test [4] has as its target T2, hSERT. The test is described as follows: hSERT membrane radioligand binding assay (3H-citalopram), Assay 1. The conditions noted are these: SERT pKi, hSERT HEK-293 membranes, 1.0 nM 3H-citalopram; values given as lower bounds.
In test [5] the target is T2, hSERT. Put plainly: hSERT neurotransmitter uptake assay (3H-5-HT), Assay 2. Format: cell-based. Further details: expressed in transfected cells; host or cells: HEK-293. The note with it: serotonin reuptake inhibition, 3H-5-HT uptake, HEK-293 hSERT cells (values without asterisk); read-out: SERT pIC50 (converted).
Test [6] deals with T1, hNET. Put plainly: hNET neurotransmitter uptake assay (3H-NE), Assay 2. The class given is cell-based. Also on record: expressed in transfected cells; host or cells: HEK-293. The note with it: norepinephrine reuptake inhibition, 3H-NE uptake, HEK-293 hNET cells (values without asterisk); read-out: NET pIC50 (converted).

T2 sequence (P31645 whole entry): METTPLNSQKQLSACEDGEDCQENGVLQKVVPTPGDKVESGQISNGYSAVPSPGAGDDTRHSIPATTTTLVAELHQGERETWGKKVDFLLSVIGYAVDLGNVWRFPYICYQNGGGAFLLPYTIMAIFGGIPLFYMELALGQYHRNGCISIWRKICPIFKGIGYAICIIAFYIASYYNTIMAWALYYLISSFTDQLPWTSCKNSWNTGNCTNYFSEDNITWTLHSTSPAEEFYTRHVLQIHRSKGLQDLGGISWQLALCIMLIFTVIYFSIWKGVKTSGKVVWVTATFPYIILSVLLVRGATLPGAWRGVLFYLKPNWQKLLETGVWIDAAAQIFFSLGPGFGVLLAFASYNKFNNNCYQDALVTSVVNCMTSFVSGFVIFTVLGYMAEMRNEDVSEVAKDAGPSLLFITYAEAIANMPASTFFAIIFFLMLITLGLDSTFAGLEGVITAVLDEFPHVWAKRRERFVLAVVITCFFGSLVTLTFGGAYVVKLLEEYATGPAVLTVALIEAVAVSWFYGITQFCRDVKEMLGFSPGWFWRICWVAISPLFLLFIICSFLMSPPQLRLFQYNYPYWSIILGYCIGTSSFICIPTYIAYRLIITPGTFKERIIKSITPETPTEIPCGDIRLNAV

Take `CC[C@@H](Oc1cccc(Cl)c1C)[C@H]1CCNC1` [Example 2-65, (S)-3-[(R)-1-(3-Chloro-2-methylphenoxy)propyl]pyrrolidine]: the IC50 on hNET [1] and at hSERT [2] was not above 10 nM in each case.
As to `CC(C)[C@H](Oc1c(F)cc(Cl)cc1F)[C@H]1CCNC1` [Example 6-5, (S)-3-[(S)-1-(4-Chloro-2,6-difluorophenoxy)-2-methylpropyl]pyrrolidine], the IC50 on hNET [1] and at hSERT [2] was not above 10 nM each time.
As for `CCC(CC)[C@@H](Oc1cccc(Cl)c1Cl)[C@H]1CCNC1` [Example 11, (S)-3-[(R)-1-(2,3-Dichlorophenoxy)-2-ethylbutyl]pyrrolidine], the IC50 on hNET [1] and at hSERT [2] was not above 10 nM each time.
In the case of `CC(C)[C@@H](Oc1cc(F)cc(Cl)c1)[C@H]1CCNC1` [Example 6-60, (S)-3-[(R)-1-(3-Chloro-5-fluorophenoxy)-2-methylpropyl]pyrrolidine], the IC50 on hNET [1] and on hSERT [2] was not above 10 nM in each case.
In the case of `CC(C)[C@H](Oc1ccc(Cl)c(Cl)c1)[C@@H]1CCNC1` [Example 6-65, (R)-3-[(S)-1-(3,4-Dichlorophenoxy)-2-methylpropyl]pyrrolidine], the IC50 was not above 100 nM at hNET [1] and not above 10 nM at hSERT [2].
For `CC(C)[C@@H](Oc1ccc(Cl)c(Cl)c1F)[C@H]1CCNC1` [Example 6-8, (S)-3-[(R)-1-(3,4-Dichloro-2-fluorophenoxy)-2-methylpropyl]pyrrolidine], in that order: not above 100 nM and not above 10 nM.
For `CC[C@@H](Oc1ccc(Cl)cc1)[C@H]1CCNC1` [Example 2-4, (S)-3-[(R)-1-(4-Chlorophenoxy)propyl]pyrrolidine], in that order: not above 100 nM and not above 10 nM.
For `CC(C)[C@@H](Oc1cc(Cl)ccc1Cl)[C@H]1CCNC1` [Example 6-26, (S)-3-[(R)-1-(2,5-Dichlorophenoxy)-2-methylpropyl]pyrrolidine], in that order: not above 100 nM and not above 100 nM.
For the compound `CC(C)[C@H](Oc1cccc(Cl)c1F)[C@H]1CCNC1` [Example 6-3, (S)-3-[(S)-1-(3-Chloro-2-fluorophenoxy)-2-methylpropyl]pyrrolidine], the results for the IC50 at hNET [1] and on hSERT [2] were not above 10 nM and not above 100 nM, respectively.
For `CC(C)C[C@@H](Oc1cc(F)cc(Cl)c1)[C@H]1CCNC1` [Example 10-83, (S)-3-[(R)-1-(3-Chloro-5-fluorophenoxy)-3-methylbutyl]pyrrolidine], in that order: not above 10 nM and not above 100 nM.
For `Cc1cc(Cl)ccc1O[C@H](C(C)C)[C@@H]1CCNC1` [Example 6-46, (R)-3-[(R)-1-(4-Chloro-2-methylphenoxy)-2-methylpropyl]pyrrolidine], in that order: not above 100 nM and not above 100 nM.
For `CC(C)[C@@H](Oc1ccc(Cl)c(Cl)c1)[C@H]1CCNC1` [Example 6-63, (S)-3-[(R)-1-(3,4-Dichlorophenoxy)-2-methylpropyl]pyrrolidine], in that order: not above 100 nM and not above 10 nM.
On to `Cc1ccc(OC(C2CCCC2)C2CCNC2)c(Cl)c1` (mixture of isomers) [Example 17, 3-[(2-Chloro-4-methylphenoxy)cyclopentylmethyl]pyrrolidine], for which the IC50 at hNET [1] and on hSERT [2] was not above 10 nM in each case.
Turning to `CCC[C@H](Oc1cccc(Cl)c1F)[C@H]1CCNC1` [Example 4-48, (S)-3-[(S)-1-(3-Chloro-2-fluorophenoxy)butyl]pyrrolidine], the values for the IC50 on hNET [1] and at hSERT [2] were not above 10 nM and not above 100 nM, respectively.
`CCC(CC)[C@H](Oc1cccc(Cl)c1Cl)[C@H]1CCNC1` [Example 12-1, (S)-3-[(S)-1-(2,3-Dichlorophenoxy)-2-ethylbutyl]pyrrolidine]: the IC50 at hNET [1] and on hSERT [2] was not above 10 nM each time.
In the case of `CC(C)[C@@H](Oc1c(F)cc(Cl)cc1Cl)[C@H]1CCNC1` [Example 6-31, (S)-3-[(R)-1-(2,4-Dichloro-6-fluorophenoxy)-2-methylpropyl]pyrrolidine], the IC50 at hNET [1] was not above 100 nM; at hSERT [2], not above 10 nM.
For `CC(C)[C@@H](Oc1cccc(Cl)c1F)[C@H]1CCNC1` [Example 6-4, (S)-3-[(R)-1-(3-Chloro-2-fluorophenoxy)-2-methylpropyl]pyrrolidine], in that order: not above 10 nM and not above 10 nM.
The like results for `CC[C@@H](Oc1ccc(Cl)c(F)c1)[C@H]1CCNC1` [Example 2-6, (S)-3-[(R)-1-(4-Chloro-3-fluorophenoxy)propyl]pyrrolidine] were, in that order, not above 100 nM and not above 10 nM.
For `CCC[C@@H](Oc1c(Cl)ccc(Cl)c1Cl)[C@H]1CCNC1` [Example 4-26, (S)-3-[(R)-1-(2,3,6-Trichlorophenoxy)butyl]pyrrolidine], in that order: not above 10 nM and not above 10 nM.
With `CC[C@@H](Oc1ccccc1Cl)[C@H]1CCNC1` [Example 2-24, (S)-3-[(R)-1-(2-Chlorophenoxy)propyl]pyrrolidine], the IC50 on hNET [1] and at hSERT [2] was not above 100 nM in each case.
Turning to `COc1cc(Cl)ccc1O[C@H](C(C)C)[C@@H]1CCNC1` [Example 6-48, (R)-3-[(R)-1-(4-Chloro-2-methoxyphenoxy)-2-methylpropyl]pyrrolidine], the IC50 was not above 100 nM at hNET [1] and not above 10 nM at hSERT [2].
For `CC(C)C[C@H](Oc1c(Cl)c(F)cc(F)c1Cl)[C@H]1CCNC1` [Example 10-85, (S)-3-[(S)-1-(2,6-Dichloro-3,5-difluorophenoxy)-3-methylbutyl]pyrrolidine], in that order: not above 10 nM and not above 10 nM.
With `CC(C)C[C@H](Oc1cccc(C(F)(F)F)c1F)[C@H]1CCNC1` [Example 10-21, (S)-3-[(S)-1-(2-Fluoro-3-trifluoromethylphenoxy)-3-methylbutyl]pyrrolidine], the IC50 at hNET [1] and on hSERT [2] was not above 10 nM in each case.
As to `CC(C)C[C@@H](Oc1ccc(Cl)c(F)c1)[C@H]1CCNC1` [Example 10-71, (S)-3-[(R)-1-(4-Chloro-3-fluorophenoxy)-3-methylbutyl]pyrrolidine], the IC50 on hNET [1] and at hSERT [2] was not above 10 nM in each case.
As to `Clc1cccc(OC(C2CCCC2)C2CCNC2)c1Cl` (centres unmarked) [Example 18-1, 3-[Cyclopentyl-(2,3-dichlorophenoxy)methyl]pyrrolidine], the IC50 on hNET [1] and at hSERT [2] was not above 10 nM throughout.
`CCC[C@H](Oc1ccc(Cl)cc1OC)[C@H]1CCNC1` [Example 4-72, (S)-3-[(S)-1-(4-Chloro-2-methoxyphenoxy)butyl]pyrrolidine]: the IC50 on hNET [1] and at hSERT [2] was not above 10 nM each time.
`CC(C)C[C@H](Oc1c(F)cc(Cl)cc1F)[C@H]1CCNC1` [Example 10-67, (S)-3-[(S)-1-(4-Chloro-2,6-difluorophenoxy)-3-methylbutyl]pyrrolidine]: the IC50 at hNET [1] and at hSERT [2] was not above 10 nM throughout.
Regarding `CCC[C@H](Oc1ccc(Cl)c(F)c1Cl)[C@H]1CCNC1` [Example 4-39, (S)-3-[(S)-1-(2,4-Dichloro-3-fluorophenoxy)butyl]pyrrolidine], the IC50 at hNET [1] and on hSERT [2] was not above 10 nM each time.
Regarding `CC(C)[C@H](Oc1c(F)cc(Cl)cc1Cl)[C@@H]1CCNC1` [Example 6-32, (R)-3-[(S)-1-(2,4-Dichloro-6-fluorophenoxy)-2-methylpropyl]pyrrolidine], the IC50 on hNET [1] is not above 316 nM; on hSERT [2], not above 100 nM.
As for `Cc1cc(O[C@H](C2CC2)[C@H]2CCNC2)c(Cl)cc1Cl` [Example 16-73, (S)-3-[(R)cyclopropyl-(2,4-dichloro-5-methylphenoxy)methyl]pyrrolidine], the results for the inhibition constant (Ki) on hNET [3] and at hSERT [4] were not above 3160 nM and not above 10 nM, respectively. Also, at hSERT [2], the IC50 is not above 100 nM.
Turning to `CC(C)CC(Oc1c(Cl)ccc(Cl)c1F)C1CCNC1` (centres unmarked) [Example 10-58, 3-[1-(3,6-Dichloro-2-fluorophenoxy)-3-methylbutyl]pyrrolidine], the inhibition constant Ki at hNET [3] and on hSERT [4] was not above 10 nM throughout. Moreover, the IC50 on hSERT [5] and at hNET [6] was not above 10 nM in each case.
For the compound `CCC[C@H](Oc1ccc(F)cc1Cl)[C@H]1CCNC1` [Example 4-32, (S)-3-[(S)-1-(2-Chloro-4-fluorophenoxy)butyl]pyrrolidine], the inhibition constant (Ki) at hNET [3] and on hSERT [4] was not above 10 nM throughout. Further, the IC50 at hSERT [5] and at hNET [6] was not above 10 nM throughout.
With `CCC[C@@H](Oc1ccc(Cl)cc1)[C@H]1CCNC1` [Example 4-2, (S)-3-[(R)-1-(4-Chlorophenoxy)butyl]pyrrolidine], the Ki on hNET [3] and on hSERT [4] was not above 10 nM throughout. Further, the figures for the IC50 at hSERT [5] and on hNET [6] were not above 10 nM and not above 100 nM, respectively.
For `CC(C)[C@H](Oc1cc(Cl)cc(Cl)c1)[C@H]1CCNC1` [Example 6-66, (S)-3-[(S)-1-(3,5-Dichlorophenoxy)-2-methylpropyl]pyrrolidine], the inhibitory constant (Ki) (in general, a measure of affinity in units of concentration, obtained from inhibition or displacement) on hNET [3] was not above 100 nM; on hSERT [4], not above 10 nM. Also, the IC50 at hSERT [5] was not above 10 nM; on hNET [6] it was not above 100 nM.
